Biological target: CYP2D6 (Homo sapiens, UniProt P10635)
Experiment: CYP inhibition in HLM: bufuralol 1'-hydroxylation
Format: in vitro ADME
Design: tissue Gentest Corp. (Woburn, Mass.); host or cells: pooled human liver microsomes
Conditions: in the presence of Compound 1, concentration-dependent
Protocol: The incubations were carried out in test tubes (12.0×75 mm). The incubation mixtures (250 μL) contained 0.5 mg of HLM protein, 50 (CYP1A2 and CYP2E1) or 25 (CYP2C9, CYP2C19, CYP2D6 and CYP3A4) pmol of recombinant human CYPs, Compound 1 (10 or 50 μM), probe substrate (R—, S-warfarin, chlorzoxazone, S-mephenyloin, or bufuralol) at different concentrations, and 0.5 mg of NADPH in 50 mM Tris buffer containing 15 mM MgCl2 (pH 7.4). Compound 1 was added to the reaction mixture 5 minutes prior to the addition of the probe substrate. […]
The quantification was based on the calibration curves, and the quality control (QC) samples were applied to ensure the quality of the experiments. […]
3. […] Multiple reaction monitoring (MRM) was applied for the quantification. […]
Data were acquired and analyzed by ChemStation (Version 6.03, Hewlett Packard, Waldbronn, Germany) for 6-, 7-, and 10-hydroxywarfarin and 6-hydroxychlorzoxazone, and MacQuan (Version 1.6, PE Biosystem, Foster City, Calif.) for 1′-hydroxybufuralol and 4′-hydroxymephenytoin. Quantification was based on peak area ratios of metabolites over the respective IS against the respective concentration of the metabolites. […] The metabolic rates were determined using Excel (Microsoft Office 97, Microsoft Corporation, Redmond, Wash.) or SigmaPlot (Version 6.00, SPSS Inc. Chicago, Ill.). […]

Sequence of CYP2D6 (P10635 whole entry): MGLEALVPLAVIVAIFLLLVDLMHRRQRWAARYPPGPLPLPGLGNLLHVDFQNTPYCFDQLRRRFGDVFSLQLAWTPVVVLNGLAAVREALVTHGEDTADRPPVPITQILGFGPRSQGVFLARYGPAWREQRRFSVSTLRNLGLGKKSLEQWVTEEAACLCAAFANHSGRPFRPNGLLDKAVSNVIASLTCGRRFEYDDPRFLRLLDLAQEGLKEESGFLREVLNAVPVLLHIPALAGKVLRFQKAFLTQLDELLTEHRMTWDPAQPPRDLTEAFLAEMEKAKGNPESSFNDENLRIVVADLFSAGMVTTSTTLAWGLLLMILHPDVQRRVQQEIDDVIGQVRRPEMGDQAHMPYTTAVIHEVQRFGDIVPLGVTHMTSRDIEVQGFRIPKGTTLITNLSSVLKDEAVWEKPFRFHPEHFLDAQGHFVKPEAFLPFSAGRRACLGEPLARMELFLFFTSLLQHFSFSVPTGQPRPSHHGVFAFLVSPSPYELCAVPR

Q: For `CNC(=O)Cc1ccc2ccn(C3CCN(CCc4ccccc4F)CC3)c2c1` [Compound 1, N-methyl-[1-[1-(2-fluorophenethyl)piperidine-4-yl]-1H-indol-6-yl] acetamide], which “effect on CYP2D6-mediated bufuralol 1'-hydroxylation activity (in words)” value is on record?
A: significantly reduced
